Laboratory results as given in patent US11389438B2 (CHDI Foundation, Inc., priority 2019, dated 2022).
Where two headings read alike, the source gives them in different places.

Experiments:
[1] = molecular target: VHL complex (VHL, Elongin B, Elongin C, Cul2, Rbx1) (Homo sapiens (Human), UniProt P40337); test: VHL SPR assay; format: binding; details: immobilized VHL complex; read-out: VHL SPR Kd
From the text: (§1) Surface Plasmon Resonance (SPR) assays have been developed to test the affinity (KD) of VHL or CRBN-based compounds to respective recombinant ligase complex/domain.
(§2) The assays are based on surface plasmon resonance (SPR), which enables to measure the changes of the local refractive index due to changes of molecular mass on a gold chip surface in the case of a binding event and in a flowing system. To detect binding between both partners, the respective E3 ligase is immobilized to the chip surface, while the test compounds are flown over the chip surface at a steady velocity. The detected changes in the RU response are indicative of the binding event and are concentration dependent.
(§3) These tags provide the anchor for the capturing process to either an NTA or Streptavidin coated chip surface (immobilization level of 3,000-5,000 RU). Because of the rather complex structure of the VHL complex, it was additionally coupled to the chip surface by amino coupling to prevent any protein loss by disruption of the complex in the flowing system.
(§4) To detect binding of compounds and extract dissociation constants KD for the tested compounds to the immobilized E3 ligase, concentration response curves of the compounds were recorded. Compounds were usually tested in 10-pt dilutions up to 20 μM final concentration in assay buffer and were flown over the chip at 30 μL/min. The contact time for each cycle includes 90 s for association and 200 s for dissociation of compounds.
(§5) In the following tables, the Kd values are indicated as: +++, <100 nM; ++, 100-500 nM, +, >500 nM.

[2] = molecular target: pre-formed polyQ46 or Exon1-polyQ46 aggregates (mHTT) (Homo sapiens, UniProt P42858, INS38QQQQQQQQQQQQQQQQQQQQQQQQQ); test: Q46_RBA radioligand binding assay (displacement of [3H]-radioligand)
Method: Binding of W to mHTT. A radioligand binding assay was developed to screen for compounds which can efficiently displace a radioligand detailed elsewhere (see, e.g., U.S. Patent Publication No. from US 2017/0292150) pre-formed polyQ46 or Exon1-polyQ46 aggregates (Q46_RBA).
Aggregation of polyQ peptides is initiated by cleavage of the tag from a GST-polyQ46 or from a MBP-Exon1-polyQ46 fusion protein. The pre-formed aggregates are then incubated with compounds which compete with the [^3H]-radiolabelled ligand for binding to the aggregates. The readout is a scintillation based MicroBeta measurement of radioligand bound to aggregates. The activity was indicated as: +++, <100 nM; ++, 100-500 nM, +, >500 nM.

[3] = molecular target: HTT-Exon1-Q73-EGFP in HeLa cells (aggregated HTT) (Homo sapiens (Human), UniProt P42858, INS38QQQQQQQQQQQQQQQQQQQQQQQQQQQQQQQQQQQQQQQQQQQQQQQQQQQQ); test: HTT degradation assay, aggregated HTT MSD assay; format: cell-based; details: HeLa cells transfected with Exon1-Q73-EGFP, 22 hr, 0.01-10 μM
Sequence of HTT-Exon1-Q73-EGFP in HeLa cells (aggregated HTT) (P42858 other isoform, or with tags, fused parts or gaps limits assumed, stated change not applied): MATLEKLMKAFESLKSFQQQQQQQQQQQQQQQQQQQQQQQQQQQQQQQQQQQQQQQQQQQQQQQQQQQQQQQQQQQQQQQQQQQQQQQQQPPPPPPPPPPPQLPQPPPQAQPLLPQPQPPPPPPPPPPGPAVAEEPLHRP
Method: (§6) Compounds described herein were tested for efficacy in HTT-lowering in human HeLa cells transiently overexpressing HTT-Exon1-polyQn proteins. For HTT degradation experiments HeLa cells were transiently transfected with pcDNA3.1(+)-hHTT-E1mixQn-EGFP plasmids for transient expression of HTT-Exon1 proteins of different polyQ length (HTT-exon1-Q23/73/145-EGFP). Two hours after transfection the cells were treated with test compounds at 7 concentrations from 0.01 μM to 10 μM (final assay concentration)+DMSO control. After a 22 hr incubation with test compounds the cells were washed with 1×PBS and lysed in MSD lysis buffer (150 mM NaCl; 20 mM Tris ph 7.5; 1 mM EDTA, 1 mM EGTA; 1% Triton X-100, 1× Phosphatase Inh. Cocktail 2, 1× Phosphatase Inh. Cocktail 3, 1× Protease Inh. Cocktail, 10 mM NaF, 1 mM PMSF) for 30 min on ice. […]
(§7) After an additional washing step, 10 μL per sample were transferred to each well of the antibody-coated MSD plate and incubated with shaking for 1 h at RT. […] After washing three times with washing buffer, 35 μL of read buffer T with surfactant (Meso Scale Discovery) were added to each well. […] The obtained readout is the MSD signal intensity for each well. […]

[4] = molecular target: HTT-Exon1-Q73-EGFP in HeLa cells (soluble mHTT) (Homo sapiens (Human), UniProt P42858, INS38QQQQQQQQQQQQQQQQQQQQQQQQQQQQQQQQQQQQQQQQQQQQQQQQQQQQ); test: HTT degradation assay, soluble mHTT MSD assay; format: cell-based; details: HeLa cells transfected with Exon1-Q73-EGFP, 22 hr, 0.01-10 μM
Sequence of HTT-Exon1-Q73-EGFP in HeLa cells (soluble mHTT) (P42858 other isoform, or with tags, fused parts or gaps limits assumed, stated change not applied): as the sequence (P42858 other isoform, or with tags, fused parts or gaps limits assumed, stated change not applied) above
Method: as §6, §7

[5] = molecular target: mouse CRBN thalidomide binding domain (mCRBN-TBD) (Mus musculus (Mouse), UniProt Q8C7D2); test: CRBN SPR assay; details: immobilized mCRBN-TBD
Sequence of mouse CRBN thalidomide binding domain (mCRBN-TBD) (Q8C7D2 321-429): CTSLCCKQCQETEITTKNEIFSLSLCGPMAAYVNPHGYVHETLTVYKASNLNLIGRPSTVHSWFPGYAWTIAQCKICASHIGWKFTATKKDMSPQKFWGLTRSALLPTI
From the text: as §1, §2, §3, §4, §5

[6] = class symbols, read-out: Q46_RBA IC50

Sequence of VHL complex (VHL, Elongin B, Elongin C, Cul2, Rbx1) (P40337 whole entry, looked up): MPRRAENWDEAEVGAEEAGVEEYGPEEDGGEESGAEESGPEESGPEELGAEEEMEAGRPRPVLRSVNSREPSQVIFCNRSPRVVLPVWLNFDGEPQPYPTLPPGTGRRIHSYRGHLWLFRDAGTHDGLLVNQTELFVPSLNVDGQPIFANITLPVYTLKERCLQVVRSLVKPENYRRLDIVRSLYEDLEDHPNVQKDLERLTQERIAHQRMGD
Sequence of VHL complex (VHL, Elongin B, Elongin C, Cul2, Rbx1) (Q15370 whole entry partner, looked up): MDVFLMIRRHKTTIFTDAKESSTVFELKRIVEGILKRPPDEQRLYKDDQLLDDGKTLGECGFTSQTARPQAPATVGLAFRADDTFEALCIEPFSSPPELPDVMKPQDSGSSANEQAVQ
Sequence of VHL complex (VHL, Elongin B, Elongin C, Cul2, Rbx1) (Q15369 whole entry partner, looked up): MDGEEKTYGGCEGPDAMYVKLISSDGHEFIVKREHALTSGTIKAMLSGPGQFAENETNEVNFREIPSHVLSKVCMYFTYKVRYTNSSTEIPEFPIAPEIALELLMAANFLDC
Sequence of VHL complex (VHL, Elongin B, Elongin C, Cul2, Rbx1) (Q13617 whole entry partner, looked up): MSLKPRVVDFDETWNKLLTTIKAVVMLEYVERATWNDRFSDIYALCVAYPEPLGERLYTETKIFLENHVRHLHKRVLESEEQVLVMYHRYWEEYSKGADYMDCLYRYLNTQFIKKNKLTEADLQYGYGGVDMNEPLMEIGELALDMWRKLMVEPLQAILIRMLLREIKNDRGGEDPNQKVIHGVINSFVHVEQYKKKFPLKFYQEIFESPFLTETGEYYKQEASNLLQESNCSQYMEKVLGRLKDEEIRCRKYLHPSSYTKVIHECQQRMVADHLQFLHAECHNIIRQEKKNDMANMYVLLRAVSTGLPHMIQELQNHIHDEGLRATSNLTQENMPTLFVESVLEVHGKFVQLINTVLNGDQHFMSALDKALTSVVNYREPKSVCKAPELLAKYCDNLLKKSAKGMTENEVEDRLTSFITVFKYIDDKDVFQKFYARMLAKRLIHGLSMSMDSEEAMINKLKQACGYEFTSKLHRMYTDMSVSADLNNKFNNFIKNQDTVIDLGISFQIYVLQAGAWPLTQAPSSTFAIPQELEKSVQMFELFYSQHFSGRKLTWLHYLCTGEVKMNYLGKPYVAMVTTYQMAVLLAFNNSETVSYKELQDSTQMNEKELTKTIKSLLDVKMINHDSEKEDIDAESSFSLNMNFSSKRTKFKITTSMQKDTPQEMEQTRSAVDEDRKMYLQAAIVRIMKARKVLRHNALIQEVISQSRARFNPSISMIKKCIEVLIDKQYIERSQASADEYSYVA
Sequence of VHL complex (VHL, Elongin B, Elongin C, Cul2, Rbx1) (P62877 whole entry partner, looked up): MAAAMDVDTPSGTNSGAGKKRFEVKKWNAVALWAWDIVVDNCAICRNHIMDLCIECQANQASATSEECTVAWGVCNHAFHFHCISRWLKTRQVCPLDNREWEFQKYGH

| SMILES | Kd [1] | IC50 [2] | Reduction of aggregated mHTT Exon1-Q73 levels [3] | Reduction of soluble mHTT Exon1-Q73 levels [4] | Kd [5] | IC50 [2, 6] |
| --- | --- | --- | --- | --- | --- | --- |
| CNc1c(-c2cn3c(n2)sc2cc(OCCOCC(=O)N[C@H](C(=O)N4C[C@H](O)C[C@H]4C(=O)NCc4ccc(-c5scnc5C)cc4)C(C)(C)C)ccc23)nc2cc(C#N)ccn12 [Compound 1] | 100 to 500 nM | < 100 nM | confirmed | confirmed | – | – |
| CNc1c(-c2cn3c(n2)sc2cc(OCCOCC(=O)N[C@@H](C(=O)N4C[C@@H](O)C[C@@H]4C(=O)NCc4ccc(-c5scnc5C)cc4)C(C)(C)C)ccc23)nc2cc(C#N)ccn12 [Compound 10] | – | < 100 nM | – | less active | – | – |
| Cn1nc(-c2nc3cc(OCc4ccc(OCCOCCOCCNc5cccc6c5C(=O)N(C5CCC(=O)NC5=O)C6=O)cn4)ccc3o2)ccc1=O (centres unmarked) [Compound 31, 2-(2,6-Dioxopiperidin-3-yl)-4-({2-[2-(2-{[6-({[2-(1-methyl-6-oxo-1,6-dihydropyridazin-3-yl)-1,3-benzoxazol-5-yl]oxy}methyl)pyridin-3-yl]oxy}ethoxy)ethoxy]ethyl}amino)-2,3-dihydro-1H-isoindole-1,3-dione] | – | < 100 nM | – | – | 100 to 500 nM | – |
| Cn1nc(-c2nc3cc(NC(=O)c4ccc(OCCOCCOCCOCCOCCOCCNc5cccc6c5C(=O)N(C5CCC(=O)NC5=O)C6=O)cn4)ccc3o2)ccc1=O (centres unmarked) [Compound 32] | – | < 100 nM | – | – | 100 to 500 nM | – |
| Cn1nc(-c2nc3cc(NC(=O)c4ccc(OCCOCCOCCNc5cccc6c5C(=O)N(C5CCC(=O)NC5=O)C6=O)cn4)ccc3o2)ccc1=O (centres unmarked) [Compound 33, 5-{2-[2-(2-{[2-(2,6-Dioxopiperidin-3-yl)-1,3-dioxo-2,3-dihydro-1H-isoindol-4-yl]amino}ethoxy)ethoxy]ethoxy}-N-[2-(1-methyl-6-oxo-1,6-dihydropyridazin-3-yl)-1,3-benzoxazol-5-yl]pyridine-2-carboxamide] | – | < 100 nM | – | – | 100 to 500 nM | – |
| Cn1nc(-c2nc3cc(NC(=O)c4ccc(OCCOCCOCCOCCOCCOCCOCCOCCOCCOCCOCCOCCNc5cccc6c5C(=O)N(C5CCC(=O)NC5=O)C6=O)cn4)ccc3o2)ccc1=O (centres unmarked) [Compound 34] | – | – | – | – | > 500 nM | < 100 nM |
| Cn1nc(-c2nc3cc(NC(=O)c4ccc(OCCOCCOCCOCCNc5cccc6c5C(=O)N(C5CCC(=O)NC5=O)C6=O)cn4)ccc3o2)ccc1=O (centres unmarked) [Compound 36] | – | < 100 nM | – | – | 100 to 500 nM | – |
| Cn1nc(-c2nc3cc(NC(=O)c4ccc(OCCOCCOCCOCCOCCOCCOCCOCCOCCOCCOCCOCCOCCOCCOCCOCCNc5cccc6c5C(=O)N(C5CCC(=O)NC5=O)C6=O)cn4)ccc3o2)ccc1=O (centres unmarked) [Compound 37] | – | – | – | – | 100 to 500 nM | < 100 nM |
| Cn1nc(-c2nc3cc(NC(=O)c4ccc(OCCOCCOCCOCCOCCOCCOCCOCCOCCNc5cccc6c5C(=O)N(C5CCC(=O)NC5=O)C6=O)cn4)ccc3o2)ccc1=O (centres unmarked) [Compound 38] | – | < 100 nM | – | – | 100 to 500 nM | – |
| CN1C(=O)CCC(N2C(=O)c3cccc(NCCOCCOCCOCCOCCOCCOc4ccc(C(=O)Nc5ccc6oc(-c7ccc(=O)n(C)n7)nc6c5)nc4)c3C2=O)C1=O (centres unmarked) [Compound 39] | – | < 100 nM | – | – | > 500 nM | – |
| CN1C(=O)CCC(N2C(=O)c3cccc(NCCOCCOCCOCCOCCOCCOCCOCCOCCOCCOCCOCCOc4ccc(C(=O)Nc5ccc6oc(-c7ccc(=O)n(C)n7)nc6c5)nc4)c3C2=O)C1=O (centres unmarked) [Compound 40] | – | – | – | – | > 500 nM | < 100 nM |
| CN1C(=O)CCC(N2C(=O)c3cccc(NCCOCCOCCOc4ccc(C(=O)Nc5ccc6oc(-c7ccc(=O)n(C)n7)nc6c5)nc4)c3C2=O)C1=O (centres unmarked) [Compound 70] | – | < 100 nM | – | – | > 500 nM | – |
